The structures appear in SMILES notation. ≈ marks a conversion by molar mass, not a printed value. Read-outs that look alike come from different tables or passages of the source. Positions of bridges follow the written chain, without caps; N, C: chain ends. Non-standard residues stand in square brackets, D forms with d. Residues, ends and D or L forms follow the SMILES beside them. Lys(N3) = [N-]=[N+]=NCCCC[C@H](N)C(=O)O; R8 = C=CCCCCCC[C@@](C)(N)C(=O)O; Cba = N[C@@H](CC1CCC1)C(=O)O; S5 = C=CCCC[C@](C)(N)C(=O)O; βAla = NCCC(=O)O; Sar = CNCC(=O)O

This is an account of results in paper PMC10786919, “Design-rules for stapled peptides with in vivo activity and their application to Mdm2/X antagonists” (Nature Communications, 2024).

A short description of data set [1]: Experimental LogD (partition coefficient). As to conditions: for logD: not stated, Partition Coeff LogD.
A short description of data set [2]: EPSA. Type of data set: physicochemical.
The subject of data set [3] is HCT116 cells. Kind of data set: Lactate dehydrogenase (LDH) release assay. Format: cell-based. In a few lines:
(§1)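 Geometric means of at least three independent biological runs are given for LDH release measured in HCT116 cells stably expressing a p53-driven β-lactamase reporter. Plating density was 8000 cells/well; DMSO in wells was 0.5%.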

Data set [4] can be described thus: Lactate dehydrogenase (LDH) release assay. Format: cell-based. As to conditions: LDH: Cytotoxicity assay: EC50. The procedure, abridged:
as §1

Data set [5] can be described thus: Solubility assay (kinetic solubility, PBS pH 7). Format: physicochemical. The following applies: pH 7, PBS; for solubility kinetic: pH 7, aqueous buffer, kinetic from dmso stock, read-out: Solubility. The procedure, abridged:
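Next, measure peak areas of sample and standard. Finally, multiply their ratio by the standard concentration to obtain solubility (µM).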

The nature of data set [6]: in vitro. As to conditions: Nanoclick permeability assay EC50. In a few lines:
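Azido-peptide permeability was read as loss of NanoBRET signal (donor 450 nm, acceptor 610 nm) after adding NanoBret618-azide at 10 μM final.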

Regarding `CC(C)C[C@H](NC(=O)[C@@H](N)CCCCN=[N+]=[N-])C(=O)N[C@H](C(=O)N[C@@H](Cc1ccccc1)C(=O)N[C@]1(C)CCCCCCC=CCCC[C@@](C)(C(=O)N[C@@H](CCC(=O)O)C(N)=O)NC(=O)[C@H](CC2CCC2)NC(=O)[C@H](CCC(N)=O)NC(=O)[C@H](C)NC(=O)[C@H](Cc2c[nH]c3ccccc23)NC(=O)[C@H](Cc2ccc(O)cc2)NC(=O)[C@H](CCC(=O)O)NC1=O)[C@@H](C)O` [MP-4009] (H-[Lys(N3)]LTF[R8]EYWAQ[Cba][S5]E-NH2; staple 5-12), the “Partition Coeff LogD” value in data set [1] is listed as “Poorly Behaved”. In addition, the EPSA result in data set [2] is “Poorly Behaved”. Further, in data set [3], the “LDH: Cytotoxicity assay: % Effect” value was -2.907%. The EC50 (commonly the concentration that produces a half-maximal response) in data set [4] was greater than 50 µM. Besides, the Solubility result in data set [5] was “Poorly Behaved”.
As to `CC(=O)N[C@@H](CC(C)C)C(=O)N[C@H](C(=O)N[C@@H](Cc1ccccc1)C(=O)NC(C)(C)C(=O)N[C@@H](CCC(=O)O)C(=O)N[C@@H](Cc1ccc(O)cc1)C(=O)N[C@H](Cc1c[nH]c2ccccc12)C(=O)N[C@@H](CCC(N)=O)C(=O)N[C@@H](CC(C)C)C(=O)N[C@@H](CC1CCC1)C(=O)NC(C)(C)C(=O)N[C@@H](CO)C(=O)N[C@@H](C)C(=O)N[C@@H](C)C(N)=O)[C@@H](C)O` [MP-256], in data set [1], the logD (commonly the decadic logarithm of the distribution of all forms, ionised or not, between an organic phase and buffer at a given pH) was 2.18. In data set [2] (EPSA), this compound gave an EPSA of 185 A^2. In data set [4], this compound gave an EC50 greater than 50 µM. Further, the solubility kinetic in data set [5] turned out to be 91.5 µM (≈ 152 µg/mL).
`CC(=O)N[C@@H](CCCNC(=N)N)C(=O)NCCCCCC(=O)N[C@@H](CC(C)C)C(=O)N[C@H](C(=O)N[C@@H](Cc1ccccc1)C(=O)N[C@]1(C)CCCCCCC=CCCC[C@@](C)(C(=O)N[C@@H](CO)C(=O)N[C@@H](C)C(=O)N[C@@H](C)C(N)=O)NC(=O)[C@H](CC2CCC2)NC(=O)[C@H](CCC(N)=O)NC(=O)[C@H](C)NC(=O)[C@H](Cc2c[nH]c3ccccc23)NC(=O)[C@H](Cc2ccc(O)cc2)NC(=O)[C@H](CCC(=O)O)NC1=O)[C@@H](C)O` [MP-4001]: in data set [1], the logD is 2.64. Also, in data set [2] (EPSA), the EPSA was determined as 207 A^2. The “LDH: Cytotoxicity assay: % Effect” value in data set [3] is reported as -1.283%. The compound also came in with an EC50 in data set [4] greater than 50 µM. The solubility kinetic in data set [5] was 4 µM (≈ 8.06 µg/mL).
For `CC(=O)N(C)CC(=O)N(C)CC(=O)N(C)CC(=O)N(C)CC(=O)N(C)CC(=O)N(C)CC(=O)N(C)CC(=O)N(C)CC(=O)N[C@@H](CC(C)C)C(=O)N[C@H](C(=O)N[C@@H](Cc1ccccc1)C(=O)N[C@]1(C)CCCCCCC=CCCC[C@@](C)(C(=O)N[C@@H](CO)C(=O)N[C@@H](C)C(=O)N[C@@H](C)C(N)=O)NC(=O)[C@H](CC2CCC2)NC(=O)[C@H](CCC(N)=O)NC(=O)[C@H](C)NC(=O)[C@H](Cc2c[nH]c3ccccc23)NC(=O)[C@H](Cc2ccc(O)cc2)NC(=O)[C@H](CCC(=O)O)NC1=O)[C@@H](C)O` [MP-623] (Ac-[Sar][Sar][Sar][Sar][Sar][Sar][Sar][Sar]LTF[R8]EYWAQ[Cba][S5]SAA-NH2; staple 12-19), the logD in data set [1] came out at 2.41. For the same compound, the EPSA in data set [2] (EPSA) stood at 200 A^2. For the same compound, in data set [3], the “LDH: Cytotoxicity assay: % Effect” value was 3.314%. In addition, the EC50 in data set [4] is greater than 50.7 µM. Moreover, the solubility kinetic in data set [5] turned out to be 150 µM (≈ 347 µg/mL).
`CC(=O)N[C@@H](CCCNC(=N)N)C(=O)N[C@@H](CCCNC(=N)N)C(=O)NCCCCCC(=O)N[C@@H](CC(C)C)C(=O)N[C@H](C(=O)N[C@@H](Cc1ccccc1)C(=O)N[C@]1(C)CCCCCCC=CCCC[C@@](C)(C(=O)N[C@@H](CO)C(=O)N[C@@H](C)C(=O)N[C@@H](C)C(N)=O)NC(=O)[C@H](CC2CCC2)NC(=O)[C@H](CCC(N)=O)NC(=O)[C@H](C)NC(=O)[C@H](Cc2c[nH]c3ccccc23)NC(=O)[C@H](Cc2ccc(O)cc2)NC(=O)[C@H](CCC(=O)O)NC1=O)[C@@H](C)O` [MP-003] returned a logD in data set [1] of 2.51. This compound returned an EPSA in data set [2] (EPSA) of 207 A^2. Further, the “LDH: Cytotoxicity assay: % Effect” value in data set [3] was found to be 46.5%. In data set [4], this compound came in with an EC50 of 31 µM. In addition, in data set [5], the solubility kinetic turned out to be 6 µM (≈ 13 µg/mL).
For `CC(=O)N[C@@H](CS)C(=O)N[C@@H](CCCCN=[N+]=[N-])C(=O)NCCC(=O)N[C@@H](C)C(=O)N[C@H](C(=O)N[C@@H](Cc1ccccc1)C(=O)N[C@]1(C)CCCCCCC=CCCC[C@@](C)(C(=O)N[C@@H](C)C(=O)N[C@@H](C)C(=O)N[C@@H](C)C(N)=O)NC(=O)[C@H](CC2CCC2)NC(=O)[C@H](C)NC(=O)[C@H](C)NC(=O)[C@H](Cc2c[nH]c3ccccc23)NC(=O)[C@H](Cc2ccc(O)cc2)NC(=O)[C@H](C)NC1=O)[C@@H](C)O` [MP-987] (Ac-C[Lys(N3)][βAla]ATF[R8]AYWAA[Cba][S5]AAA-NH2; staple 7-14), the logD in data set [1] turned out to be 1.12. In data set [2] (EPSA), this compound yielded an EPSA of 180 A^2. In data set [6], the cell entry EC50 was determined as 217 nM. Besides, the EC50 in data set [4] is greater than 50 µM. Further, the solubility kinetic in data set [5] stood at 12 µM (≈ 22.8 µg/mL).
In turn, `CC(=O)N[C@@H](CCCNC(=N)N)C(=O)N[C@@H](CCCNC(=N)N)C(=O)NCCC(=O)N[C@@H](CC(C)C)C(=O)N[C@H](C(=O)N[C@@H](Cc1ccccc1)C(=O)N[C@]1(C)CCCCCCC=CCCC[C@@](C)(C(=O)N[C@@H](CO)C(=O)N[C@@H](C)C(=O)N[C@@H](C)C(N)=O)NC(=O)[C@H](CC2CCC2)NC(=O)[C@H](CCC(N)=O)NC(=O)[C@H](C)NC(=O)[C@H](Cc2c[nH]c3ccccc23)NC(=O)[C@H](Cc2ccc(O)cc2)NC(=O)[C@H](CCC(=O)O)NC1=O)[C@@H](C)O` [MP-4002] displayed a logD in data set [1] of 2.47. Moreover, the EPSA in data set [2] (EPSA) was 212 A^2. For the same compound, the “LDH: Cytotoxicity assay: % Effect” value in data set [3] is recorded as 50.55%. Further, the EC50 in data set [4] stood at 37.7 µM. For the same compound, the solubility kinetic in data set [5] was determined as 11 µM (≈ 23.4 µg/mL).
The corresponding values for `CC(=O)N[C@@H](CCCNC(=N)N)C(=O)N[C@@H](CCCNC(=N)N)C(=O)NCCC(=O)N[C@@H](CCCCN=[N+]=[N-])C(=O)N[C@@H](CC(C)C)C(=O)N[C@H](C(=O)N[C@@H](Cc1ccccc1)C(=O)N[C@]1(C)CCCCCCC=CCCC[C@@](C)(C(=O)N[C@@H](CO)C(=O)N[C@@H](C)C(=O)N[C@@H](C)C(N)=O)NC(=O)[C@H](CC2CCC2)NC(=O)[C@H](CCC(N)=O)NC(=O)[C@H](C)NC(=O)[C@H](Cc2c[nH]c3ccccc23)NC(=O)[C@H](Cc2ccc(O)cc2)NC(=O)[C@H](CCC(=O)O)NC1=O)[C@@H](C)O` [MP-006] are 2.72, 226 A^2, 47.04%, 26.2 µM and 2 µM (≈ 4.57 µg/mL).
The compound `CC(=O)N[C@@H](CC(C)C)C(=O)N[C@H](C(=O)N[C@@H](Cc1ccccc1)C(=O)NC(C)(C)C(=O)N[C@@H](CCC(=O)O)C(=O)N[C@@H](Cc1ccc(O)cc1)C(=O)N[C@H](Cc1c[nH]c2ccccc12)C(=O)N[C@@H](C)C(=O)N[C@@H](CCC(N)=O)C(=O)N[C@@H](CC1CCC1)C(=O)NC(C)(C)C(=O)N[C@@H](CO)C(=O)N[C@@H](C)C(=O)N[C@@H](C)C(N)=O)[C@@H](C)O` [MP-254] showed a logD in data set [1] of 2.08. Also, the EPSA in data set [2] (EPSA) was found to be 188 A^2. In data set [4], this compound returned an EC50 greater than 50 µM. The solubility kinetic in data set [5] amounted to 92.5 µM (≈ 150 µg/mL).
For `CC(=O)N[C@@H](CCCCN=[N+]=[N-])C(=O)NCC(=O)N[C@@H](CO)C(=O)NCC(=O)N[C@H](C(=O)N[C@@H](CO)C(=O)N[C@@H](Cc1ccccc1)C(=O)N[C@]1(C)CCCCCCC=CCCC[C@@](C)(C(=O)N[C@@H](CCC(=O)O)C(N)=O)NC(=O)[C@H](CC(C)C)NC(=O)[C@H](CC(C)C)NC(=O)[C@H](C)NC(=O)[C@H](Cc2c[nH]c3ccccc23)NC(=O)[C@H](Cc2ccc(O)cc2)NC(=O)[C@H](CCC(=O)O)NC1=O)[C@@H](C)O` [MP-010], the logD in data set [1] came to 2.07. The EPSA entry in data set [2] was “Poorly Behaved”. Further, in data set [3], the “LDH: Cytotoxicity assay: % Effect” value is 19.63%. For the same compound, in data set [4], the EC50 is greater than 50 µM. Further, the solubility kinetic in data set [5] is 23 µM (≈ 44.8 µg/mL).
Taken in the same sequence, the figures for `CC(=O)N[C@@H](CCCCN=[N+]=[N-])C(=O)N[C@@H](CC(C)C)C(=O)N[C@H](C(=O)N[C@@H](Cc1ccccc1)C(=O)N[C@]1(C)CCCCCCC=CCCC[C@@](C)(C(=O)N[C@@H](CCC(=O)O)C(N)=O)NC(=O)[C@H](CC2CCC2)NC(=O)[C@H](CCC(N)=O)NC(=O)[C@H](C)NC(=O)[C@H](Cc2c[nH]c3ccccc23)NC(=O)[C@H](Cc2ccc(O)cc2)NC(=O)[C@H](CCC(=O)O)NC1=O)[C@@H](C)O` [MP-4008] (Ac-[Lys(N3)]LTF[R8]EYWAQ[Cba][S5]E-NH2; staple 5-12) were 2.48, “Poorly Behaved”, -0.7368%, greater than 50 µM and 23 µM (≈ 41.4 µg/mL).
In turn, `CC(=O)N[C@H](C)C(=O)N[C@H](C)C(=O)N[C@H](C)C(=O)N[C@H](C)C(=O)N[C@H](C)C(=O)N[C@H](C)C(=O)N[C@H](C)C(=O)N[C@H](C)C(=O)N[C@@H](CC(C)C)C(=O)N[C@H](C(=O)N[C@@H](Cc1ccccc1)C(=O)N[C@]1(C)CCCCCCC=CCCC[C@@](C)(C(=O)N[C@@H](CO)C(=O)N[C@@H](C)C(=O)N[C@@H](C)C(N)=O)NC(=O)[C@H](CC2CCC2)NC(=O)[C@H](CCC(N)=O)NC(=O)[C@H](C)NC(=O)[C@H](Cc2c[nH]c3ccccc23)NC(=O)[C@H](Cc2ccc(O)cc2)NC(=O)[C@H](CCC(=O)O)NC1=O)[C@@H](C)O` [MP-414] (Ac-[dA][dA][dA][dA][dA][dA][dA][dA]LTF[R8]EYWAQ[Cba][S5]SAA-NH2; staple 12-19) showed a logD in data set [1] of 2.65. The compound further showed an EPSA in data set [2] (EPSA) of 210 A^2. The “LDH: Cytotoxicity assay: % Effect” value in data set [3] is recorded as -4.321%. For the same compound, the EC50 in data set [4] was greater than 50.7 µM. Besides, the solubility kinetic in data set [5] stood at 35 µM (≈ 81 µg/mL).
